Measured values from US11413322B2, “Immunotherapy for angiogenic disease” (International Institute of Cancer Immunology, Inc., priority 2014, dated 2022).
Entries after “also recorded” stand apart in the source; their conditions may differ. Ends that are not written are not given here.

Assays:
[1] = system: choroidal neovascular area; assay: Mouse laser-induced choroidal neovascularization, WT1235m and WT1332 (Example 2); format: in vivo, mouse (CBF-1); conditions: 200 μg/body intracutaneous, 4 administrations, FIG. 5; for choroidal neovascular area compared to PBS administration group: time course 2 to 6 weeks
Procedure: Two species of WT1 peptides: WT1235m ([…](SEQ ID NO: 19)) and WT1332 ([…](SEQ ID NO: 32)) were used as test substances, and following setting of administration groups were provided to conduct an experiment in the same method and procedure as Example 1. The WT1235m was a peptide in which methionine in position 2 of WT1235 (SEQ ID NO: 9) was replaced with tyrosine.
Fluorescence ocular fundus angiography was carried out at 2 weeks, 3 weeks, 4 weeks, 5 weeks, and 6 weeks after the photocoagulation to analyze time-dependent change of choroidal neovascular area. […] In WT1332 administration group, choroidal neovascular area at 6 weeks after the photocoagulation was reduced to about 70% of choroidal neovascular area at 2 weeks after the photocoagulation.

[2] = system: laser-induced choroid coat angiogenesis; assay: Mouse model of laser-induced choroid coat angiogenesis, WT1 peptide vaccine (Example 1); format: in vivo, mouse (C57BL/6J)
Procedure: Male C57BL/6J mice (provided by CLEA Japan, Inc.) were used. At the beginning of the experiment, the mice were 8 weeks old (body weight: about 20 to 25 g). The mice were free-fed with laboratory chow (manufactured by Oriental Yeast Co., Ltd.) and tap water. Six mice were used for each administration group.
The resultant was diluted to 0.227 or 2.27 mg/mL with sterilized PBS. The resultant WT1 solution and Montanide ISA51 VG were mixed so that the volume ratio was 1:1.27 to prepare emulsions of 0.1 μg/μL, 1 μg/μL, and 10 μg/μL. Each of the emulsions was intracutaneously administered at 10 μL/body. Administered doses were 1 μg/body, 10 μg/body, and 100 μg/body. Timing of administrations were on 15, 22, 29, and 36 days after photocoagulation.
Specifically, with respect to the mice of administration groups (groups 1 to 4) administered with the test substance (WT1 peptide), the administration was carried out through the following procedure.
(1) Grouping was carried out on the basis of area of fluorescence leakage on 14 days after the photocoagulation.
(3) Abdomen was shaved with hair clippers, and then intracutaneous administration was carried out using a 30 G injection needle.
(3) Photocoagulation was carried out using Multi Color Laser Photocoagulator (red) (manufactured by NIDEK CO., LTD.) under the following coagulation conditions: spot size of 50 μm, output of 60 mW, and coagulation time of 0.1 second. […]
(2) Dilatation of pupils was carried out with Mydrin-P, and then general anesthesia was performed by intramuscular administration at 1 mL/kg of a mixture of Ketalar injection (manufactured by DAIICHI SANKYO COMPANY, LIMITED) and Celactal injection (manufactured by Bayer) (7:1). (3) Fluorescite (Manufactured by Alcon, Inc.) was injected at 0.1 mL/kg via the tail vein, and then fluorescence ocular fundus angiography was carried out using Micron III. (4) An area of fluorescence leakage was calculated using an image analysis software. […]

| Sequence | choroidal neovascular area at 6 weeks after the photocoagulation relative to area at 2 weeks after the photocoagulation ([1]; CBF-1 mice) | choroidal neovascular area compared to PBS administration group [1] | choroidal neovascular area at 6 weeks after the photocoagulation relative to area at 2 weeks after the photocoagulation ([2]; WT135 group, dose not specified (1, 10, 100 μg/body applied), intracutaneous, FIG. 4) | choroidal neovascular area, change with administration (vs PBS administration group) ([2]; any applied dose of 1, 10 and 100 μg/body intracutaneous, time course 2 to 6 weeks, FIG. 3, FIG. 4) | choroidal neovascular area at 6 weeks after the photocoagulation compared with 2 weeks (in words) ([1]; CBF-1 mice) |
| --- | --- | --- | --- | --- | --- |
| KRYFKLSHLQMHSRKH [WT1332, WT1 peptide] | about 70% | Decrease in choroidal neovascular area | – | – | – |
| APVLDFAPPGASAYGSLG [WT135, WT1 peptide] | – | – | about 50% | Decrease in choroidal neovascular area; also recorded: decreasing trend | – |
| CYTWNQMNL [WT1235m] | – | Decrease in choroidal neovascular area | – | – | the same as that at 2 weeks after the photocoagulation |
